Tests used:
Format in all cases: biochemical
[1] = target: T1, S. aureus topoisomerase IA (SaTopoIA) (Staphylococcus aureus, UniProt Q5HGI2); assay: DNA relaxation assay with pHOT-1 plasmid; also ssDNA religation and plasmid cleavage assays
T1 construct: gene topA; N-terminal His-tag, pET28a(+), 2070 bp, 79 kDa
T1 sequence (Q5HGI2 1-689): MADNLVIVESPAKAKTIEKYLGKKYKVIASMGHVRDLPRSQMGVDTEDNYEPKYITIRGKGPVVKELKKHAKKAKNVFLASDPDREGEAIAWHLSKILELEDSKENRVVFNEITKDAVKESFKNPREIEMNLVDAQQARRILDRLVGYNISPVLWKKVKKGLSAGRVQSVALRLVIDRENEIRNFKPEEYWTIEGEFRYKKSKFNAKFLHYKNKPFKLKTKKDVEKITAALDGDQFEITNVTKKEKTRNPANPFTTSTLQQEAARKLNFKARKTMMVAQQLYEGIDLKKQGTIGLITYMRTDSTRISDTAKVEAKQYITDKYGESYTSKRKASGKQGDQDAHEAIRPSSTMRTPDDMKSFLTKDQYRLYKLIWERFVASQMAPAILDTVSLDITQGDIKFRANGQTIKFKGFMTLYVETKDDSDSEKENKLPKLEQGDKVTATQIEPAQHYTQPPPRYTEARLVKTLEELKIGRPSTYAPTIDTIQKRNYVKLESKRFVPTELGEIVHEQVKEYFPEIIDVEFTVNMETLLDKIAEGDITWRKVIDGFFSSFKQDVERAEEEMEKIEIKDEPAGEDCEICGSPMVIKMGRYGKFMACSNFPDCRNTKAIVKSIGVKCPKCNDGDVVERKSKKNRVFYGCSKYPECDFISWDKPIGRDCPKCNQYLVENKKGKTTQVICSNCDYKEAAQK

[2] = target: T2, E. coli topoisomerase III (EcTopoIII) (Escherichia coli, UniProt P14294); assay: DNA relaxation assay with pHOT-1 plasmid, agarose gel
T2 construct: gene topB; N-terminal His-tag, pET28a(+), 1962 bp, 73 kDa
T2 sequence (P14294 whole entry): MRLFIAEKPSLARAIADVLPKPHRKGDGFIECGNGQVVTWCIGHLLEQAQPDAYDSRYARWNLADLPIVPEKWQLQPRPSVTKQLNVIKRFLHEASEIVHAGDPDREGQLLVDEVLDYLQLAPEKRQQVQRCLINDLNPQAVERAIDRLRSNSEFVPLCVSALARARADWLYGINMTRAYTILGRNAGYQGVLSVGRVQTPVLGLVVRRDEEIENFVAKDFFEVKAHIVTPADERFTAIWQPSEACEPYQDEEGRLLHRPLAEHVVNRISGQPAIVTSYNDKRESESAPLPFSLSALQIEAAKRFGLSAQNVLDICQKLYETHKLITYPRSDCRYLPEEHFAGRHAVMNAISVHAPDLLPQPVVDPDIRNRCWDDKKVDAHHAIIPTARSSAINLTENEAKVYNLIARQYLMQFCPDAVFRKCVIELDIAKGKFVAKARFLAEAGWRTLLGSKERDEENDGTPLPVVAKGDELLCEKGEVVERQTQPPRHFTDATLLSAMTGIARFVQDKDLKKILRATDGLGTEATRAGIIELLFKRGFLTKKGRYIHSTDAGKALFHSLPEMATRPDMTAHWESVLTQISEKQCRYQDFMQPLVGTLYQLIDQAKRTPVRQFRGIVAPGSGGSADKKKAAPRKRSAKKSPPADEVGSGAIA

[3] = target: T3, E. coli topoisomerase IA (EcTopoIA) (Escherichia coli, UniProt P06612); assay: as above
T3 construct: gene topA; expressed in pET28a(+), purified
T3 sequence (P06612 whole entry): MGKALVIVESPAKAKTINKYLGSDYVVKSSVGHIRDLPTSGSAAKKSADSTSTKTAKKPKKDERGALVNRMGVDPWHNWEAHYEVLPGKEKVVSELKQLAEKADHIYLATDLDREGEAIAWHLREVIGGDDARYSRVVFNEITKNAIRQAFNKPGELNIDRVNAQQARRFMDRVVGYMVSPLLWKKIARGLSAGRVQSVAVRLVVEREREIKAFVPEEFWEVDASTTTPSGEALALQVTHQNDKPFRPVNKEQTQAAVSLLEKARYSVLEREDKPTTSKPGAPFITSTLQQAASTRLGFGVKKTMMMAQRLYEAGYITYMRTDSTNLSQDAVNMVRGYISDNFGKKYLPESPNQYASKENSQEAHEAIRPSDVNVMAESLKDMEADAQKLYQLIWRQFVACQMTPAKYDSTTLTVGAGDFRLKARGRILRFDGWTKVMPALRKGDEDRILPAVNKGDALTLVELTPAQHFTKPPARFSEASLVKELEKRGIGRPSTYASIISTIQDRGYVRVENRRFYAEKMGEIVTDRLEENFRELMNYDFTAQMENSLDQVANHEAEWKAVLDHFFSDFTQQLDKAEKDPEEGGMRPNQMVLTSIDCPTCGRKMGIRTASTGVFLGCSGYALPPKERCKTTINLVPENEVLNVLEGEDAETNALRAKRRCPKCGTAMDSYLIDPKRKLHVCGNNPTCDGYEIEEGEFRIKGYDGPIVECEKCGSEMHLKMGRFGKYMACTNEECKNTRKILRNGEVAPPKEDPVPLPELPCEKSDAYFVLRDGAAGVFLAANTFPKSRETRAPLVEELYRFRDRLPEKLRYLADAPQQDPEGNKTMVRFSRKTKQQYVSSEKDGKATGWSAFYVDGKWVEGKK

[4] = target: T4, A. baumannii topoisomerase IA (AbTopoIA) (Acinetobacter baumannii, UniProt A0ABX6CBM5); assay: as above
T4 construct: gene topA; N-terminal His-tag, pET28a(+), 2637 bp, 98 kDa
T4 sequence (A0ABX6CBM5 1-878): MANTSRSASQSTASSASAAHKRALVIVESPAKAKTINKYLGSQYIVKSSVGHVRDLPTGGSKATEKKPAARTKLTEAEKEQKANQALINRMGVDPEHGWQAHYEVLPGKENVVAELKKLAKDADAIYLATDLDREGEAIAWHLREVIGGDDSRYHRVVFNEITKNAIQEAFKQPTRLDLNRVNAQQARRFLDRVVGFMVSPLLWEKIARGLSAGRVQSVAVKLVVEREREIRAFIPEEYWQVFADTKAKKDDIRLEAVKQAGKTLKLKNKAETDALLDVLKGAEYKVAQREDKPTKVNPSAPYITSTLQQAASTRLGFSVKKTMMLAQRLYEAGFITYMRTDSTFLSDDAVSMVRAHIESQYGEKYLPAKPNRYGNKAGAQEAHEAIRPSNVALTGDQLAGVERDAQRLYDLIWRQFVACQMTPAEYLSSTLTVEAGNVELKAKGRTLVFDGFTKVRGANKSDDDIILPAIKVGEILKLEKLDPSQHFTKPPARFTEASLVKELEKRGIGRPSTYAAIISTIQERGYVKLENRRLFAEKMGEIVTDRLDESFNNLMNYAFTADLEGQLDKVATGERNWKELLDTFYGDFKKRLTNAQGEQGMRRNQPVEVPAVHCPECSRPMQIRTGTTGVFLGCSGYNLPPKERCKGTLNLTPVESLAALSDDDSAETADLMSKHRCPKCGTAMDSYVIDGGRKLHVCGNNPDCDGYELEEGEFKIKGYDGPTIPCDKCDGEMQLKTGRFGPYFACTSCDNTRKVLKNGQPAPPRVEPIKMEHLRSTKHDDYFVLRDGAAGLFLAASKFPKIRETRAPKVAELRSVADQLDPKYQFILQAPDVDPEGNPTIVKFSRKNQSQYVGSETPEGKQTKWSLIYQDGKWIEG

| SMILES | IC50 [1] [µM] | IC50 [2] [µM] | IC50 [3] [µM] | IC50 [4] [µM] |
| --- | --- | --- | --- | --- |
| CCCCN1CCN(c2ccc3[nH]c(-c4ccc5[nH]c(-c6ccc(OC)c(OC)c6)nc5c4)nc3c2)CC1 [BPVF, 5-(4-butylpiperazin-1-yl)-2′-(3,4-dimethoxyphenyl)-1H,1′H-2,5′ bibenzo[d]imidazole] | 41.4 | 1.96 |  |  |
| CCCN1CCN(c2ccc3nc(-c4ccc5nc(-c6ccc(OCC)cc6)[nH]c5c4)[nH]c3c2)CC1 [PPEF, 2′-(4-ethoxyphenyl)-5-(4-propylpiperazin-1-yl)-1H,1′H-2,5′-bibenzo(d)imidazole] | 15.5 | 1.58 | 2.71 | 9.48 |

— publication PMC9938908, “Unraveling topoisomerase IA gate dynamics in presence of PPEF and its preclinical evaluation against multidrug-resistant pathogens” (Communications Biology, 2023)
